In paper PMC12705620 (Frontiers in Pharmacology, 2025):

Tests used:
human erythrocytes = assay: Hemolytic activity; assay type: cell-based; conditions: 1% human erythrocytes in PBS, 45 min, 37 °C, absorbance 540 nm, 30% lysis threshold, peptides up to 60 µM, triplicate, single donor
Experimental: Whole blood was collected from healthy volunteers after obtaining informed consent, using Vacuette EDTA tubes (Greiner Bio-One). […] For hemolytic assessment, 180 μL of the prepared erythrocyte suspension was mixed with 20 μL of serially diluted peptide solutions (ranging from 60 to 0.03 μM in PBS).

S. aureus JAR060131 = assay: Bactericidal (time-kill) kinetics; assay type: cell-based, Staphylococcus aureus; conditions: 3.75 µM peptide, 1 × 10^6 CFU/mL
Experimental: (§1) Time-kill kinetics were evaluated against S. aureus JAR060131 and A. baumannii RUH875. Mid-logarithmic phase bacterial cultures were diluted to a final concentration of 1 × 10^6 CFU/mL in PBS. Bacteria were incubated with 0.5-, 2-, and 4-fold the LC99.9. Assays were conducted in polypropylene tubes (Micronics) with a total volume of 500 µL. Control samples consisted of bacteria incubated in PBS alone. At 1, 5, 30, and 120 min, 50 µL samples were collected and immediately added to 50 µL of 0.05% (v/v) sodium polyanethol sulfonate (SPS; Sigma-Aldrich) in PBS to neutralize residual peptide activity ([Dankert et al., 1995]). Viable bacterial counts were determined by plating 10 µL of serial 10-fold dilutions onto BA plates. Colonies were counted after 24 h of incubation at 37 °C. All conditions were performed in triplicate.

A. baumannii RUH875 = assay: Bactericidal (time-kill) kinetics; assay type: cell-based, Acinetobacter baumannii; conditions: within 1 min at 3.75 µM
Experimental: as §1

[1] = tested on: HaCaT human keratinocytes; assay: Cytotoxicity (WST-1 and LDH); assay type: cell-based; conditions: 24 h exposure, triplicate
Experimental: (§2) Cells (5 × 10^5 cells/mL) were seeded in 96-well plates (100 μL/well; Thermo Scientific) and allowed to adhere for 24 h. After adhesion, monolayers were exposed to two-fold serial dilutions of the tetrameric and reference peptides (final concentrations: 60–0.05 µM) in fresh DMEM containing 2% (v/v) FBS, and incubated for 24 h at 37 °C in a humidified 5% CO2 atmosphere. Cell viability was assessed using the water-soluble tetrazolium salt (WST-1; Roche) assay, and membrane integrity was measured using the lactate dehydrogenase (LDH) release assay (Abcam), following manufacturer instructions. Absorbance was measured using the Synergy H1 microplate reader (Biotek). Results are expressed as percentages relative to untreated control (for WST-1) and positive lysis control (for LDH) and all experiments were performed in triplicate.

[2] = tested on: human skin fibroblast cells (BJ); assay: Cytotoxicity (WST-1 and LDH); assay type: cell-based; conditions: 24 h exposure, triplicate
Experimental: as §2

[3] = tested on: human keratinocytes and dermal fibroblasts; assay: Cytotoxicity summary over human skin cells; assay type: cell-based; conditions: 24 h
Experimental: as §2

[4] = tested on: S. aureus LUH14616 (MRSA); assay: Ex vivo human skin wound infection model; set-up: species or system Staphylococcus aureus; conditions: 200 µM topical, 4 h treatment, versus untreated control (Figure 4C), p < 0.001
Source text: Human skin from 3 donors was obtained via the Residual Tissue Biobank of the Red Cross Hospital (Beverwijk, Netherlands). The use of these coded, post-operative residual tissue samples was approved by patients through the informed opt-out-plus protocol of the Red Cross Hospital Skin ([Code-of-Conduct-for-Health-Research, 2022]) and processed for an ex vivo wound infection model as described ([Dijksteel et al., 2020]). The Wounded skin grafts were sectioned into approximately 1 cm^2 samples using a sterile scalpel and were decontaminated by immersion in 70% ethanol for 30 min, followed by three PBS washes. Samples were placed dermis-down and wound-side-up on stainless steel grids with central indentations, positioned in 12-well plates, and cultured at the air–liquid interface in DMEM at 37 °C and 5% CO2. To confine reagents to the wound area, a resin barrier (OpalDam; Ultradent) was applied to the wounded area and polymerized using a hand-held UV light (Valo X) for 10 s. The wounds were then topically infected with 10 µL of S. aureus LUH14616 suspension of 1 × 10^7 CFU/mL (final dose: 1 × 10^5 CFU/graft) in PBS for 1 h, followed by topical application of 10 µL of peptide solution for 4 h. Chlorhexidine (0.5% (v/v) in 70% ethanol; Entick B.V.) and PBS were used as positive and negative controls, respectively. After treatment, tissue samples were transferred to polypropylene vials containing 1 mL PBS supplemented with 0.025% (v/v) SPS and a 7 mm stainless steel bead. Homogenization was performed using a MagnaLyser System (Roche) with three 30-s cycles at 7,000 rpm, with 30 s of cooling on ice between cycles. Homogenates were 10-fold serially diluted in PBS, and 100 µL aliquots were plated on BA plates. CFUs were enumerated after overnight incubation at 37 °C.

[5] = DMEM 2% FBS, concentration causing >30% membrane permeation
[6] = WST-1, concentration causing <70% metabolic activity

**Q.** What does the source list for “Ac-LKRVWKRVFKLLKRYWRQLKKPVR-NH2 (N-terminus and C-terminus assumed) [SAAP-148, reference compound]”?
**A.** Hemolytic concentration (HC) < 30% (human erythrocytes): 0.47 µM; Time to complete killing (S. aureus JAR060131): ≤ 5 min; Log reduction in CFU (A. baumannii RUH875): > 3 log; Cytotoxicity, LDH leakage [1, 5]: 3.75 µM; Cytotoxicity, Metabolic activity [1, 6]: 3.75 µM; Cytotoxicity, LDH leakage [2, 5]: 1.88 µM; Cytotoxicity, Metabolic activity [2, 6]: 3.75 µM; Cytotoxic thresholds, WST-1 and LDH [3]: 1.88 to 3.75 µM; Reduction of bacterial load (CFU counts) [4]: significantly reduced bacterial load
